Experimental data: patent US20070060573A1, “Acyltryptophanols” (priority 2005, published 2007)
pIC50: −log10 of the molar value.

Target: T1, human FSH receptor (Homo sapiens, UniProt P23945)
T1 construct: expressed in transfected cells; host or cells: CHO cells (hFSHR clone 16)
T1 sequence (P23945 18-695): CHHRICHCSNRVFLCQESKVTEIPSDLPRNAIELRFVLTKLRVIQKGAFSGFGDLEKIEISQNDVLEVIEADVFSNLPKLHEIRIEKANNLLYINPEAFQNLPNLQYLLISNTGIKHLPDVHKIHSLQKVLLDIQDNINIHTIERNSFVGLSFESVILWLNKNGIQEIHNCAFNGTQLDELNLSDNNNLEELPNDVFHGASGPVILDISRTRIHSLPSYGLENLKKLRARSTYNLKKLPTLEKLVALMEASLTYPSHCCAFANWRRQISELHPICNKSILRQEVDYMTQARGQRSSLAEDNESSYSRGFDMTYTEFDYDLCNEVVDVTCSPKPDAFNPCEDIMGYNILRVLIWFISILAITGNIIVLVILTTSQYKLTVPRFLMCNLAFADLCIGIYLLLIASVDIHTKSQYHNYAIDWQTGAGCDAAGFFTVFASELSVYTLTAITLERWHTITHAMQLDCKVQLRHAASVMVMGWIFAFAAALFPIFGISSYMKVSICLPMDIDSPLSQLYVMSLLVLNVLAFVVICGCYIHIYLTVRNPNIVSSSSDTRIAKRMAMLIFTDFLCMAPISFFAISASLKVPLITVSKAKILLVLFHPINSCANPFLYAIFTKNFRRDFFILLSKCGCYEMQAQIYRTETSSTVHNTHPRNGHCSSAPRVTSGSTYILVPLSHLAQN
Assay: HTRF assay for measuring cAMP in cells, FSH-antagonistic effect (in the presence of hFSH)
Assay type: cell-based
Conditions: hFSHR clone 16 cells (CHO cells stably transfected with the human FSH receptor), in the presence of 1e-9 mol/l hFSH, 37° C. for 2 h
Text: […]

Row | pIC50 | Structure (SMILES)
1 | 5.15 | COc1cc(-c2cc(C(=O)NC(CO)Cc3c[nH]c4ccc(Br)cc34)c3ccccc3n2)cc(OC)c1OC (racemic) [Example 1, N-[(R,S)-2-(5-Bromo-1H-indol-3-yl)-1-(hydroxymethyl)ethyl]-2-(3,4,5-trimethoxyphenyl)quinoline-4-carboxamide]
2 | 6.00 | COc1cc(-c2cc(C(=O)NC(CO)Cc3c[nH]c4cc(F)ccc34)c3ccccc3n2)cc(OC)c1OC (racemic) [Example 8, N-[(R,S)-2-(6-Fluoro-1H-indol-3-yl)-1-(hydroxymethyl)ethyl]-2-(3,4,5-trimethoxyphenyl)quinoline-4-carboxamide]
3 | 6.70 | COc1cc(-c2cc(C(=O)NC(CO)Cc3c[nH]c4ccc(OCc5ccccc5)cc34)c3ccccc3n2)cc(OC)c1OC (racemic) [Example 9, N-[(R,S)-1-(Hydroxymethyl)-2-[5-(phenylmethoxy)-1H-indol-3-yl]ethyl]-2-(3,4,5-trimethoxyphenyl)quinoline-4-carboxamide]
4 | 6.00 | COc1cc(-c2cc(C(=O)NC(CO)Cc3c[nH]c4c(C)cccc34)c3ccccc3n2)cc(OC)c1OC (racemic) [Example 10, N-[(R,S)-1-(Hydroxymethyl)-2-(7-methyl-1H-indol-3-yl)ethyl]-2-(3,4,5-trimethoxyphenyl)quinoline-4-carboxamide]
5 | 5.40 | COc1ccc2nc(-c3ccc(OC)c(OC)c3OC)cc(C(=O)N[C@@H](CO)Cc3c[nH]c4ccccc34)c2c1 [Example 16, N-[(R)-1-(Hydroxymethyl)-2-(1H-indol-3-yl)ethyl]-6-methoxy-2-(2,3,4-trimethoxyphenyl)quinoline-4-carboxamide]
6 | 6.40 | COc1cc(-c2cc(C(=O)N[C@@H](CO)Cc3c[nH]c4ccccc34)c3cc(F)ccc3n2)cc(OC)c1OC [Example 17, 6-Fluoro-N-[(R)-1-(hydroxymethyl)-2-(1H-indol-3-yl)ethyl]-2-(3,4,5-trimethoxyphenyl)quinoline-4-carboxamide]
7 | 5.22 | COc1cc(-c2cc(C(=O)N[C@@H](CO)Cc3c[nH]c4ccccc34)c3cc([N+](=O)[O-])ccc3n2)cc(OC)c1OC [Example 19, N-[(R)-1-(Hydroxymethyl)-2-(1H-indol-3-yl)ethyl]-6-nitro-2-(3,4,5-trimethoxyphenyl)quinoline-4-carboxamide]
8 | 6.52 | COc1ccc2nc(-c3cc(OC)c(OC)c(OC)c3)cc(C(=O)N[C@@H](CO)Cc3cn(C)c4ccccc34)c2c1 [Example 22, N-[(R)-1-(Hydroxymethyl)-2-(1-methyl-1H-indol-3-yl)ethyl]-6-methoxy-2-(3,4,5-trimethoxyphenyl)quinoline-4-carboxamide]
9 | 5.22 | O=C(N[C@@H](CO)Cc1c[nH]c2ccccc12)c1cc(-c2ccc3c(c2)CCO3)nc2ccccc12 [Example 36, 2-(2,3-Dihydrobenzofuran-5-yl)-N-[(R)-1-(hydroxymethyl)-2-(1H-indol-3-yl)ethyl]quinoline-4-carboxamide]
10 | 6.05 | COc1ccc2nc(/C=C/c3ccc(OC)c(OC)c3)cc(C(=O)N[C@@H](CO)Cc3c[nH]c4ccccc34)c2c1 [Example 38, 2-[(E)-2-(3,4-Dimethoxyphenyl)ethenyl]-N-[(R)-1-(hydroxymethyl)-2-(1H-indol-3-yl)ethyl]-6-methoxyquinoline-4-carboxamide]
11 | 5.22 | CC(C)c1cccc(-c2cccc(C(=O)N[C@@H](CO)Cc3c[nH]c4ccccc34)c2)c1 [Example 59, N-[(R)-1-(Hydroxymethyl)-2-(1H-indol-3-yl)ethyl]-3′-(1-methylethyl)[1,1′-biphenyl]-3-carboxamide]
12 | 5.10 | CC(C)c1cccc(-c2ccccc2C(=O)N[C@@H](CO)Cc2c[nH]c3ccccc23)c1 [Example 86, N-[(R)-1-(Hydroxymethyl)-2-(1H-indol-3-yl)ethyl]-3′-(1-methylethyl)[1,1′-biphenyl]-2-carboxamide]
13 | 5.00 | COc1ccc(OC)c(-c2cccc(C(=O)N[C@@H](CO)Cc3c[nH]c4ccccc34)c2)c1 [Example 87, N-[(R)-1-(Hydroxymethyl)-2-(1H-indol-3-yl)ethyl]-2′,5′-dimethoxy-[1,1′-biphenyl]-3-carboxamide]
14 | 5.00 | COc1ccc(-c2cc(F)c(F)c(F)c2)c(C(=O)N[C@@H](CO)Cc2c[nH]c3ccccc23)c1 [Example 88, 3′,4′, 5′-Trifluoro-N-[(R)-1-(hydroxymethyl)-2-(1H-indol-3-yl)ethyl]-4-methoxy[1,1′-biphenyl]-2-carboxamide]
15 | 5.22 | COc1cc(COc2ccccc2CCC(=O)N[C@@H](CO)Cc2c[nH]c3ccccc23)cc(OC)c1OC [Example 91, N-[(R)-1-(Hydroxymethyl)-2-(1H-indol-3-yl)ethyl]-2-[(3,4,5-trimethoxyphenyl)methoxy]phenylpropanamide]
16 | 5.15 | COc1ccc2nc(CCc3ccc(OC)c(OC)c3)cc(C(=O)N[C@@H](CO)Cc3c[nH]c4ccccc34)c2c1 [Example 96, 2-[2-(3,4-dimethoxyphenyl)ethyl]-N-[(R)-1-(hydroxymethyl)-2-(1H-indol-3-yl)ethyl]-6-methoxyquinoline-4-carboxamide]
17 | 5.40 | COc1ccc2cc(-c3cc(C(=O)N[C@@H](CO)Cc4c[nH]c5ccccc45)c4ccccc4n3)ccc2c1 [Example 97, 2-(6-Methoxy-naphthalen-2-yl)quinoline-4-carboxylic acid [(R)-1-hydroxymethyl-2-(1H-indol-3-yl)ethyl]amide]
18 | 5.52 | Cc1nc(C)c(-c2cc(C(=O)N[C@@H](CO)Cc3c[nH]c4ccccc34)c3cc(Br)ccc3n2)s1 [Example 108, 6-Bromo-2-(2,4-dimethyl-thiazol-5-yl)quinoline-4-carboxylic acid [(R)-2-hydroxy-1-(1H-indol-3-ylmethyl)ethyl]amide]
19 | 5.82 | COc1ccc2nc(-c3cc4c(F)cccc4o3)cc(C(=O)N[C@@H](CO)Cc3c[nH]c4ccccc34)c2c1 [Example 120, 2-(4-Fluorobenzofuran-2-yl)-N-[(R)-1-(hydroxymethyl)-2-(1H-indol-3-yl)ethyl]-6-methoxyquinoline-4-carboxamide]
20 | 5.40 | CCOc1ccc(-c2cnc(OC)nc2)cc1C(=O)N[C@@H](CO)Cc1c[nH]c2ccccc12 [Example 130, 2-Ethoxy-N-[(R)-1-hydroxymethyl-2-(1H-indol-3-yl)ethyl]-5-(2-methoxypyrimidin-5-yl)benzamide]
21 | 5.82 | CCOc1ccc(-c2ccc(C)cc2)cc1C(=O)N[C@@H](CO)Cc1c[nH]c2ccccc12 [Example 162, 4-Ethoxy-4′-methylbiphenyl-3-carboxylic acid [(R)-1-hydroxy-methyl-2-(1H-indol-3-yl)ethyl]amide]
22 | 6.35 | COc1ccc(-c2ccc(OC)c(C(=O)N[C@@H](CO)Cc3c[nH]c4ccccc34)c2)cc1F [Example 307, 3′-Fluoro-4,4′-dimethoxybiphenyl-3-carboxylic acid [(R)-2-hydroxy-1-(1H-indol-3-ylmethyl)ethyl]amide]
23 | 5.46 | CCn1cc(C[C@H](CO)NC(=O)c2cc(-c3cc(F)c(OC)c(F)c3)nc3ccc(OC)cc23)c2ccccc21 [Example 337]
24 | 6.00 | CCCCCCn1cc(C[C@H](CO)NC(=O)c2cc(-c3cc(OC)c(OC)c(OC)c3)nc3ccc(OC)cc23)c2ccccc21 [Example 345, N-[(R)-1-(Hydroxymethyl)-2-(1-nhexyl-1H-indol-3-yl)ethyl]-6-methoxy-2-(3,4,5-trimethoxyphenyl)quinoline-4-carboxamide]
